Entries after “also recorded” stand apart in the source; their conditions may differ. Read-outs that look alike come from different tables or passages of the source.
Columns and labels:
[1] = Acute toxicity of L-carnosine (peritoneal and oral); assay type: in vivo; conditions: mouse, in vivo; for LD50 at 72 h: dd strain male mice
Protocol: (§1) […] LD50 was computed by the Van der Waerden method based on the number of dead mice after 72 hours. In the examination, L-carnosine was diluted with a physiological saline so that its administration concentration would be 0.1-0.3 ml/10 g.

dd strain male mice = assay: as above; assay type: in vivo
Protocol: as §1

[2] = cited from earlier work
[3] = cited from earlier work; remark: listed apart in the source
carnosinase = conditions: taken into the body; with the aid of carnosinase; cited from earlier work
[4] = peritoneal 15,000 mg/kg, after about 30 minutes

SMILES: NCCC(=O)N[C@@H](Cc1cnc[nH]1)C(=O)O [L-carnosine, β-alanyl-L-histidine]
- mortality at 12 h ([1]; 15000 mg/kg, oral 15,000 mg/kg, after 12 hours, read-out: mice died): 10%
- mortality at 2 h ([1]; ip, 15000 mg/kg, peritoneal 15,000 mg/kg, after 2 hours, read-out: experimental animals died): 80%
- LD50 at 72 h ([1]; ip, peritoneal, Van der Waerden method, 72 hours (75-hour value elsewhere in the source), read-out: LD50 at 95% level of confidence): 9090 mg/kg
- LD50 at 72 h ([1]; oral, (the minimum lethal dose), read-out: LD50): > 14900 mg/kg
- toxicity (overall) (dd strain male mice; acute toxicity test, dd strain male mice): quite low toxicity
- appreciable effect (symptoms) (dd strain male mice; oral 15,000 mg/kg): did not show any appreciable effect
- symptoms when further advanced (dd strain male mice; peritoneal 15,000 mg/kg): the animals repeated horizontal rollings and upon contact stimulation the reflex became hyperreactive with an attendant spasm, leading to ultimate death
- symptoms: raising of the tails and clonospasm (dd strain male mice; peritoneal 15,000 mg/kg, about 30 minutes after administration): seen in as many as half of the experimental animals
- experimental animals died (dd strain male mice; peritoneal 15,000 mg/kg, after 1 hour and 30 minutes): Half
- experimental animals died (dd strain male mice; peritoneal 15,000 mg/kg, after 5 hours): all of the experimental animals died
- symptoms: frontal or escape reflexes (dd strain male mice; [4]): no frontal or escape reflexes
- symptoms: spontaneous movement and respiration (dd strain male mice; [4]): a reduction in spontaneous movement accompanied by an irregular or decreased number of respirations
- LD100 (dd strain male mice; peritoneal, mice): 15,000 mg/kg
- solubility in water [2]: easily soluble in water; also recorded: readily soluble in water
- pH value of its aqueous solution [3]: 8.0-8.5
- metabolism (carnosinase): decomposed, with the aid of carnosinase, into L-histidine and β-alanine

From patent US4446149A, “Medicine for treatment of cervical erosion” (priority 1981, dated 1984)
